Values joined by “and” are separate entries in the source; they are usually repeats but may differ in a detail not shown here. Equal values may be shown once.
System: S. Typhimurium PhoP-regulated promoter GFP reporter, 4 h
Assay: PhoP-dependent GFP reporter repression – Salmonella Typhimurium, primary screen (AID 1863)

| Structure (SMILES) | IC50 |
| --- | --- |
| CN1CCN(c2cc3c(cc2F)c(=O)c(C(=O)O)cn3CCF)CC1 | 0.37 µM |
| Clc1ccc(OCCn2ccnc2)c2ccccc12 | 85.6 µM |
| CCCCCCNC(=O)c1cn(CC)c2cc(N3CCN(C)CC3)c(F)cc2c1=O | 23.2 µM |
| O=C(C[n+]1cc(-c2ccc(Cl)c(Cl)c2)n2c1CCC2)N1c2ccccc2Sc2ccccc21 | 72.7 µM |
| CCCCOc1ccc(Cc2cnc(N)nc2N)cc1 | 90.8 µM |
| CC[C@H]1OC(=O)[C@H](C)[C@@H](O[C@H]2C[C@@](C)(OC)[C@@H](O)[C@H](C)O2)[C@H](C)[C@@H](O[C@@H]2O[C@H](C)C[C@H](N(C)C)[C@H]2O)[C@](C)(O)C[C@@H](C)CN(C)[C@H](C)[C@@H](O)[C@]1(C)O | 2.36 µM |
| Cc1ccc(Nc2cc(C)nn2-c2nc(C)cc(=O)[nH]2)cc1 | 32.4 µM |
| CCCCCCCCCCOC(=O)Cn1c(COc2ccc(C)cc2)[n+](C)c2ccccc21 | 18.8 µM |
| O=C1c2ccccc2C(=O)c2[nH]c(=O)[nH]c21 | 14.5 µM |
| O=C(Nc1ccc(Cl)c(Cl)c1)Nc1ccccc1O | 135 µM |
| COc1ccc2[nH]c3c(C)c4ccncc4c(C)c3c2c1 | 31.9 µM |
| Cc1ccc(C(=O)O)cc1N=Cc1cc(Br)cc(Br)c1O | 93.1 µM |
| CC[C@H]1OC(=O)[C@H](C)[C@@H](O[C@H]2C[C@@](C)(OC)[C@@H](O)[C@H](C)O2)[C@H](C)[C@@H](O[C@@H]2O[C@H](C)C[C@H](N(C)C)[C@H]2O)[C@](C)(O)C[C@@H](C)[C@@H]2N[C@@H](COCCOC)O[C@H]([C@H]2C)[C@]1(C)O | 33.1 µM |
| CCCCCCCCCCCCCCCCn1cc[n+](CC(C)=O)c1 | 31.8 µM |
| O=c1c2c(-c3ccccc3)csc2nc2c3ccccc3c(NCCN3CCOCC3)nn12 | 53.3 µM |
| O=CN/N=C/c1c(O)ccc2ccccc12 | 71.9 µM |
| CCc1ccc(S(=O)(=O)/N=C2/C=C(Sc3ncn[nH]3)C(=O)c3ccccc32)cc1 | 99.4 µM |
| N=c1n(Cc2ccccc2)c2ccccc2n1CC(O)COc1ccc(Cl)cc1Cl (stereo unspecified) | 35.1 µM |
| C#CCOCCOCCOCCNc1nc(N2CCN(C(=O)CCCCCCCCCCNC(=O)[C@H](CCCN=C(N)N)n3cc(C[C@@H](C)CC)nn3)CC2)nc(N2CCN(C(=O)CCCCCCCCCCNC(=O)[C@@H]([C@H](C)CC)n3cc(CCCCCN)nn3)CC2)n1 | 83.1 µM |
| Cc1ccccc1NC(=O)CCC(=O)N/N=C/c1cc([N+](=O)[O-])ccc1O | 95.7 µM |
| COc1ccc(Nc2cc(C)nc(NCc3ccccc3)n2)cc1 | 97.1 µM |
| C#CCOCCOCCOCCNc1nc(N2CCN(C(=O)CCCCCCCCCCNC(=O)[C@H]([C@@H](C)CC)n3cc(CCCCN=C(N)N)nn3)CC2)nc(N2CCN(C(=O)CCCCCCCCCCNC(=O)[C@H]([C@@H](C)CC)n3cc(CCCCN=C(N)N)nn3)CC2)n1 | 78.7 µM |

| Structure (SMILES) | IC50 |
| --- | --- |
| NC(N)=N/N=C/c1ccc(OCc2ccc(Cl)cc2)cc1 | 39.4 µM |
| CCOC(=O)N1CCN(C(c2cccnc2)c2ccc3cccnc3c2O)CC1 (stereo unspecified) | 122 µM |
| CO[C@H]1/C=C/O[C@@]2(C)Oc3c(C)c(O)c4c(O)c(c(C=NN5CCN(C)CC5)c(O)c4c3C2=O)NC(=O)/C(C)=C\C=C\[C@H](C)[C@H](O)[C@@H](C)[C@@H](O)[C@@H](C)[C@H](OC(C)=O)[C@@H]1C | 7.42 µM |
| CC(C)NC1=C(Cl)C(=O)c2ccccc2C1=O | 75.5 µM |
| CCOc1ccc(NC(=O)c2ccc(NC(=O)c3cn4c5c(c(N6CCN(C)CC6)c(F)cc5c3=O)OCC4C)cc2)cc1 (stereo unspecified) | 2.93 µM |
| COc1c(N2CCN(C(=S)NCc3ccccc3)C(C)C2)c(F)cc2c(=O)c(C(=O)O)cn(C3CC3)c12 (stereo unspecified) | 43.3 µM |
| CCn1nc(C(=O)O)c(=O)c2cc3c(cc21)OCO3 | 27.9 µM |
| COc1ccc(OCC(O)CNc2ccc(Br)cc2)cc1 (stereo unspecified) | 37.2 µM |
| CCCCCCCCCCCCCCCC[n+]1cccc(C(=O)N(CC)CC)c1 | 25.3 µM |
| O=C(N/N=C/c1cccc([N+](=O)[O-])c1O)c1cccs1 | 24.7 µM |
| CCCCCCCOC(=O)C[N+](C)(C)CCOC1CC2CCC1(C)C2(C)C (stereo unspecified) | 25.3 µM |
| Cc1ccc(C(c2cc(Cl)c3cccnc3c2O)N2CCN(C)CC2)cc1 (stereo unspecified) | 55.5 µM |
| O=C(NC(CO)Cc1ccc([N+](=O)[O-])cc1)C(Cl)Cl (stereo unspecified) | 9.97 µM |
| Cn1cnc([N+](=O)[O-])c1Oc1cccc(O)c1 | 113 µM |
| COc1ccc(C(C[N+](=O)[O-])n2nc(C)cc2C)cc1 (stereo unspecified) | 48.7 µM |
| COc1ccc(CNC[C@@H](CCCCN(C)Cc2ccc(OC)cc2)N2C[C@H](c3ccccc3)N(CCc3ccc(Cl)c(Cl)c3)C(=O)C2=O)cc1 | 76.3 µM |
| NC1=NC[C@H](Cc2ccc(O)cc2)N1CCCCC1CCCCC1 | 57.2 µM |
| CNc1cc(Cl)c2nonc2c1[N+](=O)[O-] | 37 µM |
| CCc1ccc(NC(=O)C[n+]2cc(-c3ccc(C)cc3)n3c2CCC3)cc1 | 106 µM |
| Cc1cc(C)c(NC(=O)c2cn3c4c(c(N5CCN(C)CC5)c(F)cc4c2=O)OCC3C)c(C)c1 (stereo unspecified) | 20.3 µM |
| CS(=O)(=O)c1ccc([C@@H](O)[C@@H](CO)NC(=O)C(Cl)Cl)cc1 | 70.3 µM |
| CCCCCc1ccc(OCCOCCn2c[n+](C)c3ccccc32)c(CCCCC)c1 | 43.6 µM |

| Structure (SMILES) | IC50 |
| --- | --- |
| CN(O)/C=c1/ccc2c(n1)C(=O)C=CC=2 | 113 µM |
| CC1COc2c(N3CCN(C)CC3)c(F)cc3c(=O)c(C(=O)O)cn1c23 (stereo unspecified) | 0.39 µM |
| CCN(CC)c1ccc(/C=N/Nc2nc3ccccc3[nH]2)c(O)c1 | 134 µM |
| CC(C)COc1ccc(Cc2cnc(N)nc2N)cc1 | 96.7 µM |
| c1ccc(-c2cccc(-c3ccccn3)n2)nc1 | 43.1 µM |
| COc1ccccc1CNCC(O)Cn1c2ccccc2c2ccccc21 (stereo unspecified) | 104 µM |
| CC(=O)Oc1cc2cccc(OC(C)=O)c(=O)c2c(OC(C)=O)c1OC(C)=O | 46.7 µM |
| Cc1ccc(C(=O)Sc2cccccc2=O)cc1 | 21.4 µM |
| Oc1cc(Cl)ccc1Oc1ccc(Cl)cc1Cl | 0.82 µM |
| CCCCCCCNC(=O)C1(CC2CC(c3cccc(Br)c3)=NO2)CCNCC1 (stereo unspecified) | 45.6 µM |
| CNC(=S)N1CCN(c2c(F)cc3c(=O)c(C(=O)O)cn(C4CC4)c3c2OC)CC1C (stereo unspecified) | 17.6 µM |
| CCc1ccc(-c2nn(-c3ccccc3)cc2CSC(=N)N)cc1 | 37.1 µM |
| O=S1(=O)N=C(N/N=C/c2ccccn2)c2ccccc21 | 34.5 µM |
| COc1ccc(C(=O)N/N=C/c2sc3ccccc3c2O)cc1 | 107 µM |
| O=C(O)CCN1C(=O)CC(N2C(=O)/C(=C/c3ccc(Cl)cc3)SC2=S)C1=O (stereo unspecified) | 40.4 µM |
| CC1CCCC(C)N1/N=C/c1c[nH]c2ccc(Br)cc12 (stereo unspecified) | 94.9 µM |
| CCCCCCCCCCCCCCCCn1cc[n+](C)c1 | 17.1 µM |
| C[C@H]1COc2c(N3CCN(C)CC3)c(F)cc3c(=O)c(C(=O)O)cn1c23 | < 0.23 µM |
| Clc1ccc(-c2c[n+](Cc3ccc(Cl)cc3Cl)c3n2CCCCC3)cc1 | 125 µM |
| Nc1nc2ccccc2n1CCOc1ccccc1Cl | 138 µM |
| CO/N=C(/C(=O)N[C@@H]1C(=O)N2C(C(=O)O)=CCS[C@H]12)c1cnc(N)s1 | 16 µM |
| CCCCCCCNC(=O)C1(CC2CC(c3ccc(Cl)cc3)=NO2)CCNCC1 (stereo unspecified) | 54.5 µM |

| Structure (SMILES) | IC50 |
| --- | --- |
| CCn1cc(C(=O)O)c(=O)c2cc(F)c(N3CCN(C(=S)NC(=O)c4ccc(F)c(F)c4)CC3)cc21 | 46.6 µM |
| COC(=O)C1C(O)C(C)C(O)C(C)/C=C\C=C(/C)C(=O)Nc2c(C)c(OC(C)=O)c3c(c2O)C(=O)C(C)=C2OCOC(=C23)/C(C)=C/C(C)(O)C(O)C(C)C1O (stereo unspecified) | 14.8 µM |
| O=C(N/N=C/c1ccc([N+](=O)[O-])s1)C(O)c1ccccc1 (stereo unspecified) | 83.6 µM |
| NC1=NC[C@H](c2ccccc2)N1CCCCC1CCCCC1 | 40.6 µM |
| CCOc1cc(/C=N/N=C(N)N)ccc1OCc1ccc(Cl)cc1 | 45.9 µM |
| CCn1cc(C(=O)O)c(=O)c2cc(F)c(N3CCN(C(=S)NC(=O)c4ccccc4F)CC3)cc21 | 28.5 µM |
| CN1CCN(c2c(F)cc3c(=O)c(C(=O)O)cn4c3c2SCC4)CC1 | 4.43 µM and 4.66 µM |
| COc1cccc(/C=N\NC(=O)Cn2nnc3ccccc32)c1O | 84.3 µM |
| CC1CCC(C(C)C)C(OC(=O)Cn2c(-c3ccc(Cl)cc3)[n+](C)c3ccccc32)C1 (stereo unspecified) | 83.7 µM |
| COC(=O)c1c(NC(=O)c2ccc([N+](=O)[O-])o2)sc2c1CCN(C(C)C)C2 | 56.3 µM |
| O=Cc1ccc(O)c2ncccc12 | 10.2 µM |
| Nc1cc2nsnc2cc1Br | 105 µM |
| COc1c(N2CCN[C@H](C)C2)c(F)cc2c(=O)c(C(=O)O)cn(C3CC3)c12 | 0.36 µM |
| NC(=NCCCCCCN=C(N)/N=C(\N)Nc1ccc(Cl)cc1)/N=C(\N)Nc1ccc(Cl)cc1 | 8.29 µM and 10.1 µM and 14.9 µM |
| CCN1/C(=C/C=C/c2sc3ccccc3[n+]2CC)Sc2ccccc21 | 33.5 µM |
| Nc1nc(N2CCN(C/C=C/c3ccccc3)CC2)nc2ccccc12 | 147 µM |
| Oc1c(Cl)cc(Cl)c2cccnc12 | 27.9 µM |
| NC1=NC[C@@H](Cc2ccc(O)cc2)N1CCCCC1CCCCC1 | 31.2 µM |
| C/C(=N\Nc1nc2ccccc2[nH]1)c1ccccn1 | 34.3 µM |
| CCCCCCCCCn1c2c(c(=N)c3c1CCC3)CCCC2 | 30.9 µM |
| O=[N+]([O-])c1cc(Cl)c2cccnc2c1O | 3.07 µM |
| Oc1ccc(Cl)cc1Cc1cc(Cl)ccc1O | 36.6 µM |

| Structure (SMILES) | IC50 |
| --- | --- |
| Cc1ccc(Nc2cc(C)c3c(O)cccc3n2)cc1C | 75.3 µM |
| O=C(N[C@H](CO)[C@H](O)c1ccc([N+](=O)[O-])cc1)C(Cl)Cl | 9.52 µM |
| CC(C(=O)NC1CCS(=O)(=O)C1)N1C(=O)/C(=C/c2ccc(Cl)cc2)SC1=S (stereo unspecified) | 39.9 µM |
| CCn1cc(C(=O)O)c(=O)c2ccc(C)nc21 | 85.6 µM |
| O=C(NC(CO)C(O)c1ccc([N+](=O)[O-])cc1)C(Cl)Cl (stereo unspecified) | 9.67 µM |
| Nc1nonc1-n1nnc(C(=O)N/N=C/c2cc(Br)ccc2O)c1CSC1=NCCS1 | 122 µM |
| Cc1nc2c(=O)n(C)c(=O)nc-2n(C)n1 | 1.15 µM |
| O=C(N/N=C/c1cc(Cl)ccc1O)c1ccncc1 | 38 µM |
| CCn1cc(C(=O)O)c(=O)c2cc3c(cc21)OCO3 | 43 µM |
| Cc1ccccc1Nc1cc(C)c2c(O)cccc2n1 | 61.9 µM |
| OCCNCc1c(OCc2ccc(Cl)cc2)ccc2ccccc12 | 127 µM |
| CCn1cc(C(=O)NCCCO)c(=O)c2cc(F)c(N3CCN(C)CC3)cc21 | 25.5 µM |
| Oc1ccc(CNc2ccccc2F)c2cccnc12 | 96.5 µM |
| O=Nc1ccc(O)c2ncccc12 | 56.3 µM |
| Nc1[nH]c(=O)ncc1F | 29.2 µM |
| CO[C@@]1(NC(=O)C2SC(=C(C(N)=O)C(=O)O)S2)C(=O)N2C(C(=O)O)=C(CSc3nnnn3C)CS[C@@H]21 (stereo partly specified) | 16 µM |
| O=[N+]([O-])c1cc(CN2CCOCC2)c2cccnc2c1O | 44.2 µM |
| NCC12CC3CC(C1)CC(c1ccc(Br)cc1)(C3)C2 | 61.6 µM |
